The values that follow come from ChEMBL document CHEMBL1122256, “Novel tetracyclic spiropiperidines. 3. 1-arylspiro[indoline-3,4'-piperidine]s as potential antidepressants” (J Med Chem, 1983).

The subject of assay [1] is Mus musculus. As to the kind of experiment: Antidepressant activity by tetrabenazine ptosis prevention in mice after intraperitoneal administration; d = All animals died after tetrabenazine dosing. Type of assay: functional, organism-based.
Assay [2] concerns Rattus norvegicus. As to the kind of experiment: Potentiation of head twitching induced by 5-HTP in pargyline-pretreated rats following i.p. administration. The assay is classed as functional. The following applies: ip.
The subject of assay [3] is Rattus norvegicus. As to the kind of experiment: Antidepressant activity measured by potentiation of head twitching induced by 5-HTP in pargyline-pretreated rats after intraperitoneal administered. Type of assay: functional. The conditions noted are these: ip.
The subject of assay [4] is Mus musculus. Kind of assay: Inhibition of tetrabenazine ptosis in mice following i.p. administration. The assay is classed as functional. The conditions noted are these: ip.
For assay [5], the system named is Mus musculus. Kind of assay: Antidepressant activity by tetrabenazine ptosis prevention in mice after intraperitoneal administration. The following applies: ip.
In assay [6] the test system is Mus musculus. As to the kind of experiment: Antidepressant activity by tetrabenazine ptosis prevention in mice after oral administration.
Assay [7] concerns Mus musculus. Kind of assay: In vivo antidepressant activity measured by yohimbine toxicity potentiation in mouse after intraperitoneal administration. Type of assay: functional. The conditions noted are these: ip.
The subject of assay [8] is Mus musculus. As to the kind of experiment: In vivo antidepressant activity by tetrabenazine ptosis prevention in mice after intraperitoneal administration. The assay is classed as functional. The following applies: ip.
Assay [9] deals with Rattus norvegicus. Kind of assay: In vivo antidepressant activity against muricide in rat after intraperitoneal administration. The assay is classed as functional. The following applies: ip.
Assay [10] concerns Mus musculus. As to the kind of experiment: In vivo antidepressant activity by tetrabenazine ptosis prevention in mice after oral administration. The assay is classed as functional.
The test system of assay [11] is Rattus norvegicus. As to the kind of experiment: In vivo antidepressant activity measured by potentiation of head twitching induced by 5-HTP in pargyline-pretreated rats after intraperitoneal administration. The assay is classed as functional. The following applies: ip.
The subject of assay [12] is Mus musculus. As to the kind of experiment: Antidepressant activity by tetrabenazine ptosis prevention in mice after peroral administration. Type of assay: functional. The conditions noted are these: po.
For assay [13], the species on record is Rattus norvegicus. As to the kind of experiment: In vitro inhibition of neuronal uptake against norepinephrine in rat whole brain. The assay is classed as functional.
The subject of assay [14] is Mus musculus. Kind of assay: In vivo antidepressant activity by tetrabenazine ptosis prevention in mouse after intraperitoneal administration. The conditions noted are these: ip.
The species entered for assay [15] is Rattus norvegicus. Kind of assay: In vitro inhibition of neuronal uptake against dopamine in rat striatum. Type of assay: functional.
Assay [16] deals with Monoamine oxidase (Rattus norvegicus). As to the kind of experiment: In vitro inhibition of MAO against mitochondrial preparation in rat whole brain.
For assay [17], the species on record is Rattus norvegicus. Kind of assay: In vitro inhibition of neuronal uptake against serotonin in rat whole brain. Type of assay: functional.
Assay [18] relates to Mus musculus. Kind of assay: Antidepressant activity by tetrabenazine ptosis prevention in mouse after oral administration. Type of assay: functional.
For assay [19], the system named is Mus musculus. As to the kind of experiment: Antidepressant activity by tetrabenazine ptosis prevention in mice after oral administration. Type of assay: functional.

SMILES strings stand for the structures.

As a reminder, the ED50 is the dose at which the effect has come halfway, by size or by number of responders. On to `Cl.O=[N+]([O-])c1ccccc1N1CC2(CCNCC2)c2ccccc21`, for which the figures for the ED50 entry in assay [1] and in assay [2] were “All animals died” and over 10 mg/kg, respectively.

As for `Br.CN1CCC2(CC1)CN(c1ccc(F)cc1)c1ccccc12`, the values for the ED50 in assay [3], in assay [4] and in [5] were over 10 mg/kg, over 20 mg/kg and over 20 mg/kg, respectively.

Turning to `Fc1ccccc1N1CC2(CCNCC2)c2ccc(Cl)cc21.O=C(O)/C=C\C(=O)O`, the values for the ED50 in [2] and in assay [4] were over 10 mg/kg and over 8 mg/kg, respectively.

Regarding `CN1CCC2(CC1)CN(c1ccccc1N)c1ccccc12.Cl`, the ED50 in assay [2] is over 10 mg/kg; in assay [4], 4 mg/kg.

As for `CN1CCC2(CC1)CN(c1cccc(C(F)(F)F)c1)c1ccccc12`, the ED50 is over 10 mg/kg in assay [2] and over 20 mg/kg in assay [4].

Turning to `c1ccc(C2OC3(CCNCC3)c3ccccc32)cc1` (configuration not stated), the results for the ED50 in assay [2], in assay [4] and in assay [6] were 1.9 mg/kg, 0.5 mg/kg and 1 mg/kg, respectively.

Take `CN1CCC2(CC1)CN(c1ccccc1F)c1cc(Cl)ccc12.O=C(O)/C=C\C(=O)O`: the ED50 in assay [2] is over 10 mg/kg; in [4] it was 11 mg/kg.

Consider `CN(C)CCC=C1c2ccccc2CCc2ccccc21` [AMITRIPTYLINE], for which the ED50 in [7] came to 8 mg/kg; in assay [8], 1.5 mg/kg; in [9], 22.6 mg/kg; in assay [10], 1.94 mg/kg; in assay [11], 7.1 mg/kg.

Consider `CN1CCC2(CC1)CN(c1ccccc1[N+](=O)[O-])c1ccccc12`, for which the ED50 in assay [12] was 8.4 mg/kg; in assay [2] it was over 10 mg/kg; in [5] it was 4 mg/kg.

As to `CN1CCC2(CC1)CN(c1ccccc1C(F)(F)F)c1cc(Cl)ccc12.O=C(O)/C=C\C(=O)O`, the ED50 in [2] is over 10 mg/kg; in [4], over 8 mg/kg.

In the case of `CNCCCN1c2ccccc2CCc2ccccc21` [DESIPRAMINE], the ED50 was over 10 mg/kg in assay [2], 0.8 mg/kg in assay [4] and 1.6 mg/kg in assay [6].

Take `CN1CCC2(CC1)CN(c1ccc(C(F)(F)F)cc1)c1ccccc12`: the ED50 in [2] is 7.8 mg/kg; in [4], over 20 mg/kg; in [5], over 20 mg/kg.

As to `CN1CCC2(CC1)CN(c1ccccc1N)c1cc(Cl)ccc12.Cl.Cl`, the median effective dose (ED50) is over 10 mg/kg in [2] and over 20 mg/kg in assay [4].

In the case of `CN1CCC2(CC1)CN(c1ccccc1Cl)c1cc(Cl)ccc12.O=C(O)/C=C\C(=O)O`, the ED50 is over 10 mg/kg in assay [2] and 2.6 mg/kg in assay [4].

Take `Cl.Nc1ccccc1N1CC2(CCNCC2)c2ccccc21`: the results for the ED50 in assay [2] and in assay [4] were over 10 mg/kg and over 20 mg/kg, respectively.

For `Br.CN1CCC2(CC1)CN(c1ccccn1)c1ccccc12`, the ED50 in [2] was over 10 mg/kg; in [4] it was over 20 mg/kg.

Consider `Cl.Cl.Nc1ccccc1N1CC2(CCNCC2)c2ccc(Cl)cc21`, for which the ED50 in assay [2] was over 10 mg/kg; in assay [4], over 20 mg/kg.

Regarding `CN1CCC2(CC1)CN(c1ccc(Cl)cc1)c1ccccc12`, the ED50 in assay [2] was over 10 mg/kg; in assay [4] it was over 20 mg/kg.

`Fc1ccc(N2CC3(CCNCC3)c3ccccc32)cc1.O=C(O)/C=C\C(=O)O`: the ED50 is over 10 mg/kg in [2], over 20 mg/kg in assay [4] and over 20 mg/kg in assay [5].

As for `CN1CCC2(CC1)CN(c1ccccc1F)c1ccccc12.O=C(O)/C=C\C(=O)O`, the ED50 was over 10 mg/kg in assay [2] and 15.2 mg/kg in assay [4].

Broadly, the IC50 is the midpoint of a concentration-inhibition curve. As for `Clc1ccccc1N1CC2(CCNCC2)c2ccccc21.O=C(O)/C=C\C(=O)O`, the ED50 was 1.6 mg/kg in assay [7]; 1.2 mg/kg in assay [14]; 4.9 mg/kg in assay [9]; 4.7 mg/kg in assay [11]; 0.37 mg/kg in assay [18]. For the same molecule, the IC50 in assay [13] came to 6.5 µM; in [15], 8 µM; in [16], 160 µM; in assay [17] it was 1.7 µM.

`CN1CCC2(CC1)CN(c1ccccc1Cl)c1ccccc12.O=C(O)/C=C\C(=O)O`: the ED50 is over 10 mg/kg in assay [2] and 3.2 mg/kg in assay [19].

On to `CN1CCC2(CC1)CN(c1ccccc1)c1ccccc12`, for which the ED50 in assay [2] is over 10 mg/kg; in [4] it was over 20 mg/kg.
